Test systems include CCRF-CEM leukemia; HS 578T breast; SK-MEL-2 melanoma; OVCAR-8 ovarian; U251 CNS; SK-MEL-5 melanoma; MDA-MB-231 breast; HCT-116 colon; SN12C renal; SNB-75 CNS; OVCAR-4 ovarian; OVCAR-3 ovarian.
Experiment in all cases: NCI tumour cell line growth inhibition, 48 h

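The compound was tested at five concentrations on cells cultured in 96-well plates, with a 48-hour exposure period. GI50 is the concentration that inhibits growth by half. TGI marks complete inhibition of growth.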 Bounds are passed on as bounds.

Regarding `Clc1ccc2c(NCCNc3nc(-c4ccccc4)cc(-c4ccccc4)n3)ccnc2c1`, the GI50 in the experiment with CCRF-CEM leukemia was 2320 nM; in the experiment on HS 578T breast, 1990 nM; in the experiment with SK-MEL-2 melanoma, 1840 nM; with OVCAR-8 ovarian, 2070 nM; in the experiment on U251 CNS, 1960 nM; with SK-MEL-5 melanoma, 1790 nM. For the same compound, the GI50 in the experiment with MDA-MB-231 breast was 1850 nM; with HCT-116 colon, 1760 nM. In addition, the TGI stood at 5.83 µM in the experiment on CCRF-CEM leukemia; 4.56 µM in the experiment on HS 578T breast; 3.62 µM with SK-MEL-2 melanoma; 4.3 µM in the experiment with OVCAR-8 ovarian; 3.59 µM with U251 CNS; 3.2 µM in the experiment with SK-MEL-5 melanoma. Also, the TGI came out at 3.44 µM with MDA-MB-231 breast and 3.43 µM in the experiment with HCT-116 colon.
Turning to `Nc1nc(=O)n(C2OC(CO)C(O)C2O)cc1F` (configuration not stated), the TGI was greater than 43.8 µM in the experiment on CCRF-CEM leukemia; greater than 100 µM with SN12C renal; greater than 56.4 µM in the experiment on SNB-75 CNS; greater than 100 µM in the experiment with SK-MEL-2 melanoma; greater than 100 µM in the experiment on OVCAR-8 ovarian; greater than 100 µM in the experiment with U251 CNS. The TGI in the experiment on OVCAR-4 ovarian, in the experiment with SK-MEL-5 melanoma, with OVCAR-3 ovarian and with HCT-116 colon was greater than 100 µM throughout.
In the case of `c1ccc2cc3n[se]nc3cc2c1`, the TGI in the experiment on CCRF-CEM leukemia, in the experiment with SN12C renal, in the experiment on SNB-75 CNS, in the experiment with SK-MEL-2 melanoma, with OVCAR-8 ovarian and in the experiment with U251 CNS was greater than 100 µM in each case. Besides, the TGI in the experiment with OVCAR-4 ovarian and in the experiment with SK-MEL-5 melanoma was greater than 100 µM each time.
Turning to `O=C(O)/C(=C\c1ccccc1)Cc1ccccc1`, the TGI with CCRF-CEM leukemia, in the experiment with SN12C renal, in the experiment on HS 578T breast, in the experiment on SNB-75 CNS, in the experiment on SK-MEL-2 melanoma and in the experiment with OVCAR-8 ovarian was greater than 100 µM throughout. Moreover, the TGI in the experiment with U251 CNS, in the experiment with OVCAR-4 ovarian, with SK-MEL-5 melanoma, in the experiment with OVCAR-3 ovarian, in the experiment with MDA-MB-231 breast and in the experiment on HCT-116 colon was greater than 100 µM throughout.
Take `COc1cc2cc(C(=O)N3CC(COS(C)(=O)=O)c4c3cc([N+](=O)[O-])c3ccccc43)[nH]c2c(OC)c1OC` (configuration not stated): the TGI was greater than 31.6 µM with CCRF-CEM leukemia; greater than 100 µM in the experiment with SN12C renal; greater than 31.6 µM in the experiment on HS 578T breast; greater than 31.6 µM with SNB-75 CNS; greater than 31.6 µM in the experiment with SK-MEL-2 melanoma; greater than 31.6 µM with OVCAR-8 ovarian. For the same compound, the TGI was greater than 31.6 µM in the experiment on U251 CNS; greater than 31.6 µM with OVCAR-4 ovarian; greater than 31.6 µM in the experiment with OVCAR-3 ovarian; greater than 100 µM in the experiment with MDA-MB-231 breast; 15.6 µM in the experiment on HCT-116 colon.
